# Experimental data from the METLIN SMRT retention time set (Domingo-Almenara et al. 2019).
# Assay: gradient 5% acetonitrile 3 min, to 50% in 2 min, to 85% in 15 min, held 3 min, 100 µL/min
# Details: column: Zorbax Extend-C18 2.1 x 50 mm; eluents: water / acetonitrile, 0.1% formic acid
# In short: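 Pure standards were run in mixtures of ~100 molecules by HPLC coupled to a quadrupole time-of-flight mass spectrometer. The column was a Zorbax Extend-C18 (2.1 × 50 mm, 1.8 μm) at 100 μL/min, with water and acetonitrile each containing 0.1% formic acid, in positive and negative ionization mode. Dead and dwell volumes were 40 μL and 900 μL. Retention time was taken from computationally picked adduct peaks, each manually inspected, with data collected over 3 months.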
row,RP-LC retention time [s],SMILES
1,753,Cc1ccc(NC(=O)C2CCCN(c3nnc4cccc(C)n34)C2)cc1F (stereo not drawn)
2,718,Cc1ccc(S(=O)(=O)c2cnc(N3CCN(C4CCCCC4)CC3)nc2N)cc1C
3,679,CC(C)C(=O)Nc1ccc(-n2cnc(C(=O)N3CCSCC3)c2)nc1
4,894,O=C(NCc1ccccc1Br)c1cn2nc(Cl)ccc2n1
5,957,CC(C)c1cccc(NC(=O)C2CC(=O)N(c3cccc(NC(=O)C4CCC4)c3)C2)c1 (stereo not drawn)
6,664,CC(C)Oc1ccc(C(=O)N[C@H](CNC(=O)CN(C)C)Cc2ccc(-c3cn4cccc([C@H](C)O)c4n3)cc2)cc1Cl
7,628,CCCNc1cc(N2CCCC(CCC(=O)N3CCN(C(=O)c4ccco4)CC3)C2)ncn1 (stereo not drawn)
8,554,CCN1CCN(CCCNC(=O)C2CCCN(c3nn4c(=O)c5c(nc4s3)CCCC5)C2)CC1 (stereo not drawn)
9,768,CNC(=O)[C@H]1O[C@@H](n2cnc3c(NCc4cccc(I)c4)nc(Cl)nc32)C(O)[C@H]1O (stereo partly drawn)
10,839,O=C(NCCc1csc(-c2cccs2)n1)C1CCN(C(=O)CCc2ccccc2)CC1
11,900,O=C(c1ccc(F)cc1F)N1CCC2(CC1)N=C(c1ccc(Cl)cc1)NO2
12,870,O=C(N[C@H]1C[C@@H]2C[C@H]1N(S(=O)(=O)c1cc(F)cc(F)c1)C2)c1ccccc1
13,928,O=C(CN1C(=O)CC(c2cccs2)=Nc2ccccc21)Nc1ccc(F)cc1
14,1210,CCOc1ccccc1-c1nc(-c2ccc3oc(CC)nc3c2)no1
15,595,O=C(Nc1ccc(-c2nnc3n2CCCC3)cc1)c1ccn[nH]1
16,955,Cc1ccc(N2CCC(NC(=O)Nc3cccc(Br)c3)C2=O)cc1 (stereo not drawn)
17,608,CCCS(=O)(=O)Nc1cccc(-c2cn3ccccc3n2)c1
18,716,O=C1OCC/C1=C\OCCCO/C=C1\CCOC1=O
19,1030,Cc1ccc(-n2ccc(=O)c(-c3nc(-c4cccc(Cl)c4)no3)n2)cc1
20,630,Cc1cccc(C2(O)C(=O)N(CC(=O)NCc3ccco3)c3ccccc32)c1 (stereo not drawn)
21,956,O=C(Nc1ccc(C(F)(F)F)cc1)Nc1cccc(-c2nccnc2N2CCOCC2)c1
22,605,CC(=O)N1CCC(C(=O)Nc2nnc(C3CC3)s2)CC1
23,595,Cc1ccc(C(=O)N2C[C@@H]3C[C@H]2C[C@@H]3NS(C)(=O)=O)s1
24,692,COCc1nc2cccnc2n1C1CCN(C(=O)NCCc2ccccc2)CC1
25,776,CN1C(=O)c2cc(C(=O)NC3CCCCC3)nn2CC1(C)C(=O)NCc1ccc(F)cc1 (stereo not drawn)
26,972,O=C(NCc1cccs1)c1cccn1Cc1noc(-c2ccccc2)n1
27,595,COC(=O)c1c(C)[nH]c(C(=O)N2CCC(CC(=O)NCc3ccc(N(C)C)cc3)CC2)c1C

# Second part, the compound before the results:
row,SMILES,RP-LC retention time [s]
1,O=C(c1ccc2c(c1)OCO2)N1CCN(c2nc(CN3CCOCC3)cs2)CC1,596
2,Cc1c(C(=O)C(=O)N2CCc3ccccc32)c2ccccc2n1C,902
3,CCN1c2ccccc2C(=O)NC12CCN(C(=O)Nc1ccccc1F)CC2,748
4,Cc1cccc(S(=O)(=O)N2CC3CN(C(=O)C(C)c4ccccc4)CC(C2)O3)c1 (stereo not drawn),905
5,Cn1nc(C(=O)NCC2CCOCC2)c2ccccc21,697
6,CC(C)c1nc2c(NC(=O)c3ccsc3)cccn2n1,866
7,O=C1CCCN1Cc1noc(-c2ccccc2)n1,731
8,CCN1CCC2(CC1)OC(=O)C(C)=C2C(=O)Nc1cc(Cl)c(OC)cc1OC,643
9,CCOC(=O)CN1CC2=C(C1=O)C(c1ccc(OC)cc1)NC(=O)N2 (stereo not drawn),618
10,Cc1cc(C)n2c(Nc3ccccc3)c(-c3ccc(Br)cc3O)nc2n1,1120
11,CCn1ccc(C(=O)N2CCC(c3nc(-c4ccncc4)no3)C2)n1 (stereo not drawn),640
12,COCCCNC(=O)c1cc(-c2ccc(OC)c(OC)c2)nc2n[nH]c(-c3ccc(OC)cc3)c12,724
13,Cc1nnc(-c2ccc3ccn(CC(=O)NCCCc4ccccc4)c3c2)o1,807
14,COc1ccc(NS(=O)(=O)c2c(C)sc(C)c2-c2cc(C(F)(F)F)on2)cc1OC,1020
15,CCc1noc(-c2ccc(-n3ncc(C(=O)NC4CCCCC4)c3C)nc2)n1,1020
16,O=C(Nc1nnc(C2CCCO2)o1)c1cc2ccccc2o1 (stereo not drawn),655
17,Cc1ccn2c(Nc3ccc4c(c3)OCO4)c(-c3ccc(N(C)C)cc3)nc2c1,734
18,Cc1ccc(NC(=O)C2CCN(S(=O)(=O)c3ccc4[nH]c5c(c4c3)CCCCC5)CC2)nc1,897
19,Cc1ccn2c(=O)cc(CN(C)Cc3ccc(Cl)cc3)nc2c1,631
20,O=C(NCc1ccc(-c2nc(-c3ccc(F)cc3)no2)s1)C1CCC1,975
21,Cc1nc(N2CCCC2)c2c(C(=O)Nc3ccc(Cl)cc3)c(C)oc2n1,848

row,SMILES,RP-LC retention time [s]
1,Cc1ccc(-c2nnc(-c3cccc(S(=O)(=O)N4CCSCC4)c3)o2)cc1,1100
2,CC(=O)Nc1nc2ccc(CC(=O)NCCc3c[nH]c4ccc(Cl)cc34)cc2s1,747
3,CCn1ccc2cc(S(=O)(=O)N3CCCC(C(=O)NCCN4CCCCC4)C3)ccc21 (stereo not drawn),668
4,CCN1CCN(c2c(C(=O)c3ccc(C)c(C)c3)cnc3cc(OC)c(OC)cc23)CC1,579
5,CNC(=O)C1CCCN(c2nc3ncn(CC(=O)Nc4ccc(C(=O)OC)cc4)c(=O)c3s2)C1 (stereo not drawn),649
6,O=C(Nc1nc(-c2ccccc2)cs1)NC1CCCCC1,991
7,CC1CCN(c2nc(-c3ccc(C(C)(C)C)cc3)nc3ccccc23)CC1,1070
8,CN(C)S(=O)(=O)c1cc(-c2nnc(-c3ccc(F)cc3)o2)ccc1Cl,991
9,O=C(CN1C(=O)C2CCCCN2c2ccc(S(=O)(=O)N3CCCC3)cc21)NCc1ccccn1 (stereo not drawn),654
10,COCCNC(=O)c1ccc(-c2nc(CSc3ccccc3)c(C)o2)cc1,882
11,CCc1nc2cc(-c3noc(-c4ccc(C)c(F)c4)n3)ccc2o1,1350
12,O=C(CN1CCCc2nc(C3CC3)ncc2C1=O)NCC1CC1,638
13,COc1ccc(Cn2nc3ccc(S(=O)(=O)N4CCCCC4)cn3c2=O)cc1,900
14,CCOC(=O)c1nc(N2CCc3ccccc32)c2ccccc2n1,935
15,O=C(CN1CCN(C(=O)c2ccco2)CC1)Nc1cc(Cl)ccc1Cl,704
16,O=C(c1ccsc1)N1CCC(Nc2ncnc3c2CCC3)CC1,581
17,CC(C)[C@@H]1NC(=O)[C@H](Cc2ccccc2)NC(=O)[C@@H](CC(=O)O)NC(=O)CNC(=O)[C@H](CCCN=C(N)N)NC1=O,624
18,CCOc1cccc2c1OC1(C)CC2NC(=O)N1c1cccc(C(=O)NCc2cccs2)c1 (stereo not drawn),790
19,Cc1ncc(Cl)cc1NCc1ccc(C(=O)N[C@@H](CC2CCCC2)C(=O)NC2CC2)s1,837
20,Cc1cc(C)cc(NC(=O)CN2CCC(C(=O)NC3CC3)CC2)c1,564
21,CCN1C(=O)COc2ccc(-c3noc(-c4cccc(OC)c4)n3)cc21,1130

row,SMILES,RP-LC retention time [s]
1,Cc1cc(C)cc(C(=O)N2CCC3(CC2)NC(=O)c2cc(C)ccc2N3C)c1,852
2,O=C(Nc1ccc(F)cc1Cl)C1CCN(C(=O)c2cccn2-c2cccnc2)CC1,727
3,O=C(c1ccc(F)cc1)N1CCC(n2c(-c3ccoc3)nc3cccnc32)C1 (stereo not drawn),712
4,Cc1cc(C)c(C)c(S(=O)(=O)N2CCCC2c2nc(-c3cccc(F)c3)no2)c1C (stereo not drawn),1360
5,CCc1ccc(Oc2cc(N3CCC(C(=O)NCCC(C)C)CC3)ncn2)cc1,1040
6,Cc1ccc(C)c(NS(=O)(=O)c2cc(-c3[nH]ncc3C(=O)N3CCOCC3)oc2C)c1,701
7,O=C(Nc1cccn2nc(C3CCC3)nc12)c1ccc(C(F)(F)F)s1,1120
8,Cc1nc2ccn(Cc3cccs3)c(=O)c2cc1C(=O)N1CCN(c2ccccn2)CC1,611
9,O=C(Cc1ccsc1)N1CCC[C@H]1c1nc(-c2ccccc2)n[nH]1,718
10,COc1ccc(-n2cc(C(=O)OCC(=O)OC(C)C)c3ccccc3c2=O)cc1,1060
11,O=C1NCCCn2cc(S(=O)(=O)Nc3ccc(F)cc3F)cc21,641
12,O=C(NCc1ccc(Br)cc1)c1ccc(=O)n(CCN2CCCC2)c1,630
13,CO[C@H]1C(=O)N(C(C)C)[C@H]1C1CCN(C(=O)Nc2ccc(C)c(C)c2)CC1,820
14,CC(C)N1C(=O)c2cccnc2Sc2cc(NC(=O)c3ccccc3F)ccc21,896
15,COCCNc1c(-c2ccccc2)nc2sc(C(=O)N(C)C)c(C)n12,643
16,CCc1c(C)nc2nc(-c3ccco3)nn2c1N1CCN(c2ccccn2)CC1,616
17,O=C(Cc1ccsc1)NCCC1CCN(C(=O)Nc2cc(F)cc(F)c2)CC1,853
18,Clc1ccc(CSc2cc(Cl)ncn2)cc1,1170
19,CC(C)CCNC(=O)NCCC1CCN(S(=O)(=O)c2ccc(F)cc2)CC1,880
